Test results taken from patent publication US20260103479A1, “PRODRUGS OF OPICAPONE” (BIAL- PORTELA & CA, S.A., priority 2022, published 2026).

What was measured:
[1] = Intravenous pharmacokinetics in rats; type: in vivo, male Wistar rats; conditions: i.v. 1 mg/kg; for opicapone pharmacokinetic profile after intravenous prodrug (comparison): FIG. 4b; for AUC(0-t): read-out: AUClast of prodrug; for half-life: read-out: t1/2 of prodrug (converted); for Vd / clearance: plasma; for clearance: read-out: CL of prodrug (converted)
Method: The pharmacokinetic properties of compounds 1 and 4 compared to micronized crystalline opicapone were assessed by intravenous injection to 3 male Wistar rats (1 mg/kg; DMSO:20% HPBCD (1:9).
(§1) During the studies, blood was collected at different time points, from jugular vein, spun at 1500×g in a refrigerated centrifuge (4° C.) for 15 min, and the plasma obtained was stored at −80° C. until further analysis. The plasma samples collected were analysed for compound 1, compound 4 and opicapone exposure. The bioanalysis involved the use of LC-MS/MS after plasma precipitation.

[2] = In vitro stability in rat plasma; type: in vitro ADME; conditions: 1 μM; after 0.75 h
Method: (§2) The stability of 1 μM of compound 1 was assessed in the following fractions: phosphate buffer, human plasma, rat plasma, human liver S9 fraction, rat liver S9 fraction and rat liver homogenates.
(§3) Reaction was initiated by adding of 1 μM of test compound to the desired matrix (plasma, liver homogenate at 0.4 g/mL or S9 fraction at 1 mg/mL, respectively), with a final volume of 350 μL. At the following time points 0, 5, 15, 30, 45, 60 min, 50 μL of sample is taken and precipitated with 200 μL of acetonitrile 1% formic acid containing the internal standard (opicapone ^13C6) at 1 μM. Samples were centrifuged at 20,000 g at 4° C. for 10 min, and then analysed by LC-MS/MS using a bioanalytical method previously developed in-house.
(§4) The stability of 1 μM of compound 4 was assessed in the following fractions: phosphate buffer, human plasma, rat plasma, human liver S9 fraction, rat liver S9 fraction and rat liver homogenates.
(§5) Reaction was initiated by adding 1 μM of test compound to the desired matrix (plasma or S9 fraction at 1 mg/mL), with a final volume of 250 μL. […] Samples were centrifuged at 20,000 g at 4° C. for 10 min, and then analysed by LC-MS/MS using bioanalytical methods previously developed in-house. […]

[3] = In vitro stability in rat liver S9 fraction; type: in vitro ADME; conditions: 1 μM; S9 1 mg/mL; after 0.75 h
Method: as §2, §3, §4, §5

[4] = In vitro stability in human liver S9 fraction; type: in vitro ADME; conditions: 1 μM; S9 1 mg/mL; after 0.75 h
Method: as §2, §3, §4, §5

[5] = In vitro stability in human plasma; type: in vitro ADME; conditions: 1 μM; after 0.75 h
Method: as §2, §3, §4, §5

[6] = Subcutaneous pharmacokinetics in rats; type: in vivo, male Wistar rats; conditions: s.c. 3 mg/kg; for Cmax / Tmax / AUC(0-t): male, Wistar, sc, rat plasma, analyte prodrug; for AUC(0-t): read-out: AUClast of prodrug; for irritation at the injection site: DMSO:20% HPBCD (1:9), rat
Method: The pharmacokinetic properties of compounds 1 and 4 were assessed by subcutaneous injection to 4 male Wistar rats (3 mg/kg; DMSO:20% HPBCD (1:9)).
as §1, with “tail” for “jugular”

[7] = In vitro stability in potassium phosphate buffer pH 7.4; type: physicochemical; conditions: 1 μM, after 0.75 h
Method: as §2, §3
Solutions of the test compounds were prepared at 10 μM using 50 mM potassium phosphate buffer (KPB) at pH 7.4, by adding 1 μL of compound stock at 10 mM to 999 μL KPB 50 mM. […]
as §4, §5

[8] = In vitro stability / conversion to opicapone in rat liver homogenates; type: in vitro ADME; conditions: 1 μM
Method: as §2, §3, §4
Reaction was initiated by adding 1 μM of test compound to the desired matrix (plasma or S9 fraction at 1 mg/mL), with a final volume of 250 μL. For plasma, at the time points of 0, 15, 30, 45 and 60 min of incubation, 50 μL of sample is taken and precipitated with 100 μL of internal standard working solution (ISWS) consisting of acetonitrile 1% formic acid containing the internal standard (opicapone ^13C6) at 1 μM. For S9 fraction, 50 μL of sample was taken and precipitated with 100 μL of ISWS after 60 min of incubation. For rat liver homogenates (0.2 g/mL of protein), reaction was initiated by adding of 1 μM of test compound with a final volume of 350 μL. At the following time points of 0, 5, 15, 30, 45, 60 min of incubation, 50 μL of sample is taken and precipitated with 200 μL ISWS. Samples were centrifuged at 20,000 g at 4° C. for 10 min, and then analysed by LC-MS/MS using bioanalytical methods previously developed in-house. Compound 4 was stable in all matrices with exception of rat liver homogenates, where the remaining compound was of approximately 31%, after 60 min of incubation. Solutions of the test compounds were prepared at 10 μM using 50 mM potassium phosphate buffer (KPB) at pH 7.4, by adding 1 μL of compound stock at 10 mM to 999 μL KPB 50 mM.

[9] = Oral pharmacokinetics in rats; type: in vivo, male Wistar rats; conditions: p.o. 3 mg/kg; for Cmax / Tmax / AUC(0-t): male, Wistar, po, rat plasma, analyte prodrug; for AUC(0-t): read-out: AUClast of prodrug; for opicapone pharmacokinetic profile after oral prodrug (comparison): FIG. 3b
Method: The pharmacokinetic properties of compounds 1 and 4 compared to micronized crystalline opicapone were assessed by oral administrations to 4 male Wistar rats (3 mg/kg; 0.2% HPMC).
as §1, with “tail” for “jugular”

[10] = male, Wistar, iv, rat plasma, analyte prodrug
[11] = male, Wistar, iv, rat, analyte prodrug

Compound | opicapone pharmacokinetic profile after intravenous prodrug (comparison) ([1]; rat) | C0 [1, 10] [ng/mL] | AUC(0-t) [1, 10] [ng·h/mL] | half-life [1, 10] [min] | Vd [1, 11] [L/kg] | clearance [1, 11] [mL/min/kg] | stability in rat plasma [2] | stability in rat liver S9 fraction [3] | stability in human liver S9 fraction [4] | stability in human plasma [5] | Cmax [6] [ng/mL] | Tmax [6] [min] | AUC(0-t) [6] [ng·h/mL] | irritation at the injection site [6] | stability in buffer [7] | conversion to opicapone in rat liver homogenates [8] | Cmax [9] [ng/mL] | Tmax [9] [min] | AUC(0-t) [9] [ng·h/mL] | opicapone pharmacokinetic profile after oral prodrug (comparison) ([9]; rat) | other results
Cc1c(Cl)c(C)[n+]([O-])c(Cl)c1-c1noc(-c2cc(OCOP(=O)(O)O)c(O)c([N+](=O)[O-])c2)n1 [Compound 4, 2,5-dichloro-3-(5-(4-hydroxy-3-nitro-5-((phosphonooxy)methoxy)phenyl)-1,2,4-oxadiazol-3-yl)-4,6-dimethylpyridine 1-oxide] | worse intravenous pharmacokinetic parameters | 21900 | 4990 | 174 | 1.99 | 3.58 | stable | stable | stable | stable | 3140 | 30 | 9660 | low levels of irritation | stable | successfully converted to opicapone | 32.5 | 30 | 26.5 | worse oral pharmacokinetic parameters | Tmax [1, 10]: 4.8 min; remaining compound ([8]; rat liver homogenates 0.2 g/mL, after 60 min of incubation): approximately 31%
Cc1c(Cl)c(C)[n+]([O-])c(Cl)c1-c1noc(-c2cc(OP(=O)(O)O)c(O)c([N+](=O)[O-])c2)n1 [Compound 1, 2,5-dichloro-3-(5-(4-hydroxy-3-nitro-5-(phosphonooxy)phenyl)-1,2,4-oxadiazol-3-yl)-4,6-dimethylpyridine 1-oxide] | comparable to opicapone itself | 29400 | 30700 | 156 | 0.123 | 0.643 | stable | stable | stable | stable | 7770 | 60 | 15500 | low levels of irritation | stable | successfully converted to opicapone | 146 | 30 | 417 | comparable to opicapone itself | intravenous pharmacokinetic properties of the prodrug (comparison) ([1]; rat, FIG. 4a): improved pharmacokinetic properties compared to compound 4; % remaining of the parent compound ([8]; rat liver homogenate 0.4 g/mL, after 0.5 h): less than 25%; oral pharmacokinetic properties of the prodrug (comparison) ([9]; rat, FIG. 3a): improved pharmacokinetic properties compared to compound 4
